Experiments:
[1] = biological target: T1, Amine oxidase [flavin-containing] B (Homo sapiens, UniProt P27338)
T1 sequence (P27338 whole entry): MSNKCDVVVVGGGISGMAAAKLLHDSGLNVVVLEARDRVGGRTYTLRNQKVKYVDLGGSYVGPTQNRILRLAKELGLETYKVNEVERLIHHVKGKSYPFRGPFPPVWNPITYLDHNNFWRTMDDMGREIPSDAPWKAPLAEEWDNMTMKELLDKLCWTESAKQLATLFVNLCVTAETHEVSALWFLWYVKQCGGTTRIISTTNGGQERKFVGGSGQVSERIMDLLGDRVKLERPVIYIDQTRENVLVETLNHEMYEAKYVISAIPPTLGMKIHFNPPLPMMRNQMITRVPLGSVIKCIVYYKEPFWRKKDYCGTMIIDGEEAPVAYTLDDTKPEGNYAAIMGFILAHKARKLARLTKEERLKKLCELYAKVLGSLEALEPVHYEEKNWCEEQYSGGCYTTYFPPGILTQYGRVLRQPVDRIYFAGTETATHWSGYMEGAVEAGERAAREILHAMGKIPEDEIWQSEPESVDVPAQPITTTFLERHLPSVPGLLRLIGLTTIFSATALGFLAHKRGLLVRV
Description: Inhibition of human MAO-B using p-tyramine as substrate by amplex red staining based fluorometric analysis

[2] = biological target: T2, Amine oxidase [flavin-containing] A (Homo sapiens, UniProt P21397)
T2 sequence (P21397 whole entry): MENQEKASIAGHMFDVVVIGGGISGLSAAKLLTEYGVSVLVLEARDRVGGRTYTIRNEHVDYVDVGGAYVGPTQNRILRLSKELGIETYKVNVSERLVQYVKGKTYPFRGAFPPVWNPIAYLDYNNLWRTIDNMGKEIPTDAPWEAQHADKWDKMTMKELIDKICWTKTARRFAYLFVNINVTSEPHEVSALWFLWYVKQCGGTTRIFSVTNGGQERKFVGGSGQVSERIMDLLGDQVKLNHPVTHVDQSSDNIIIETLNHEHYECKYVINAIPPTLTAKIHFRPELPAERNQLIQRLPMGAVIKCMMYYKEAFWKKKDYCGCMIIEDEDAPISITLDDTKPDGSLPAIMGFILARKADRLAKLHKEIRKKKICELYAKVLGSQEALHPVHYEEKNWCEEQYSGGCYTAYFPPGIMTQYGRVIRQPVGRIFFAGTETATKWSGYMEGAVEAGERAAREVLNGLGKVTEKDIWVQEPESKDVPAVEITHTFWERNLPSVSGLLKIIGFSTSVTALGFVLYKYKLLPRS
Description: Inhibition of human MAO-A using p-tyramine as substrate by amplex red staining based fluorometric analysis

[3] = biological target: T3, MAO-A (amine oxidase [flavin-containing] A) (Homo sapiens, UniProt P21397); assay: in vitro; conditions: human MAO-A enzyme, probe p-tyramine
T3 sequence (P21397 whole entry): T2 sequence (P21397 whole entry)
Description: Inhibition of human MAO-A using p-tyramine as substrate at 100 uM by amplex red staining based fluorometric analysis relative to control

IC50 [1] | IC50 [2] | inhibition at 100 µM [3] | Compound
13.9 µM | 78.3 µM |  | CC(=O)Oc1ccc(-c2cc3ccc4ccccc4c3oc2=O)cc1OC(C)=O
54.4 µM | 97.2 µM |  | CC(=O)Oc1ccc(-c2cc3cc4ccccc4cc3oc2=O)cc1OC(C)=O
48.1 µM |  | 3.85% | COc1ccc(-c2cc3cc4ccccc4cc3oc2=O)cc1
0.241 µM |  | 24% | COc1ccc(-c2cc3ccc4ccccc4c3oc2=O)cc1OC
 |  | 15.3% | COc1ccc(-c2cc3ccc4ccccc4c3oc2=O)cc1
1.41 µM |  | 36.6% | COc1ccc(-c2cc3cc4ccccc4cc3oc2=O)cc1OC

From ChEMBL document CHEMBL6083238, “Design, synthesis and biological evaluation of novel benzocoumarin derivatives as potent inhibitors of MAO-B activity” (Bioorg Med Chem Lett, 2024)
